Results as given in ChEMBL document CHEMBL6127106, “Novel Far-Red Fluorescent 1,4-Dihydropyridines for L-Type Calcium Channel Imaging” (J Med Chem, 2024).

Experiments:
[1] = target: T1, Voltage-gated L-type calcium channel (Homo sapiens, UniProt Q13936+Q13698+Q01668+O60840); assay: Antagonist activity at L-type calcium channel in human mesoangioblast-derived myotube assessed as reduction in KCL-mediated depolarization of cytosolic (Ca2+) increase at 10 uM incubated for 25 mins in presence of KCl by live-cell imaging based analysis
[2] = target: T2, Voltage-dependent L-type calcium channel subunit alpha-1C (Homo sapiens, UniProt Q13936); assay: Antagonist activity at Cav1.2 (unknown origin) stably expressed in HEK293 cells assessed as inhibition of LTCC current by Whole cell patch clamp assay; assay type: cell-based; conditions: for Activity: human, hek293
T2 sequence (Q13936 whole entry): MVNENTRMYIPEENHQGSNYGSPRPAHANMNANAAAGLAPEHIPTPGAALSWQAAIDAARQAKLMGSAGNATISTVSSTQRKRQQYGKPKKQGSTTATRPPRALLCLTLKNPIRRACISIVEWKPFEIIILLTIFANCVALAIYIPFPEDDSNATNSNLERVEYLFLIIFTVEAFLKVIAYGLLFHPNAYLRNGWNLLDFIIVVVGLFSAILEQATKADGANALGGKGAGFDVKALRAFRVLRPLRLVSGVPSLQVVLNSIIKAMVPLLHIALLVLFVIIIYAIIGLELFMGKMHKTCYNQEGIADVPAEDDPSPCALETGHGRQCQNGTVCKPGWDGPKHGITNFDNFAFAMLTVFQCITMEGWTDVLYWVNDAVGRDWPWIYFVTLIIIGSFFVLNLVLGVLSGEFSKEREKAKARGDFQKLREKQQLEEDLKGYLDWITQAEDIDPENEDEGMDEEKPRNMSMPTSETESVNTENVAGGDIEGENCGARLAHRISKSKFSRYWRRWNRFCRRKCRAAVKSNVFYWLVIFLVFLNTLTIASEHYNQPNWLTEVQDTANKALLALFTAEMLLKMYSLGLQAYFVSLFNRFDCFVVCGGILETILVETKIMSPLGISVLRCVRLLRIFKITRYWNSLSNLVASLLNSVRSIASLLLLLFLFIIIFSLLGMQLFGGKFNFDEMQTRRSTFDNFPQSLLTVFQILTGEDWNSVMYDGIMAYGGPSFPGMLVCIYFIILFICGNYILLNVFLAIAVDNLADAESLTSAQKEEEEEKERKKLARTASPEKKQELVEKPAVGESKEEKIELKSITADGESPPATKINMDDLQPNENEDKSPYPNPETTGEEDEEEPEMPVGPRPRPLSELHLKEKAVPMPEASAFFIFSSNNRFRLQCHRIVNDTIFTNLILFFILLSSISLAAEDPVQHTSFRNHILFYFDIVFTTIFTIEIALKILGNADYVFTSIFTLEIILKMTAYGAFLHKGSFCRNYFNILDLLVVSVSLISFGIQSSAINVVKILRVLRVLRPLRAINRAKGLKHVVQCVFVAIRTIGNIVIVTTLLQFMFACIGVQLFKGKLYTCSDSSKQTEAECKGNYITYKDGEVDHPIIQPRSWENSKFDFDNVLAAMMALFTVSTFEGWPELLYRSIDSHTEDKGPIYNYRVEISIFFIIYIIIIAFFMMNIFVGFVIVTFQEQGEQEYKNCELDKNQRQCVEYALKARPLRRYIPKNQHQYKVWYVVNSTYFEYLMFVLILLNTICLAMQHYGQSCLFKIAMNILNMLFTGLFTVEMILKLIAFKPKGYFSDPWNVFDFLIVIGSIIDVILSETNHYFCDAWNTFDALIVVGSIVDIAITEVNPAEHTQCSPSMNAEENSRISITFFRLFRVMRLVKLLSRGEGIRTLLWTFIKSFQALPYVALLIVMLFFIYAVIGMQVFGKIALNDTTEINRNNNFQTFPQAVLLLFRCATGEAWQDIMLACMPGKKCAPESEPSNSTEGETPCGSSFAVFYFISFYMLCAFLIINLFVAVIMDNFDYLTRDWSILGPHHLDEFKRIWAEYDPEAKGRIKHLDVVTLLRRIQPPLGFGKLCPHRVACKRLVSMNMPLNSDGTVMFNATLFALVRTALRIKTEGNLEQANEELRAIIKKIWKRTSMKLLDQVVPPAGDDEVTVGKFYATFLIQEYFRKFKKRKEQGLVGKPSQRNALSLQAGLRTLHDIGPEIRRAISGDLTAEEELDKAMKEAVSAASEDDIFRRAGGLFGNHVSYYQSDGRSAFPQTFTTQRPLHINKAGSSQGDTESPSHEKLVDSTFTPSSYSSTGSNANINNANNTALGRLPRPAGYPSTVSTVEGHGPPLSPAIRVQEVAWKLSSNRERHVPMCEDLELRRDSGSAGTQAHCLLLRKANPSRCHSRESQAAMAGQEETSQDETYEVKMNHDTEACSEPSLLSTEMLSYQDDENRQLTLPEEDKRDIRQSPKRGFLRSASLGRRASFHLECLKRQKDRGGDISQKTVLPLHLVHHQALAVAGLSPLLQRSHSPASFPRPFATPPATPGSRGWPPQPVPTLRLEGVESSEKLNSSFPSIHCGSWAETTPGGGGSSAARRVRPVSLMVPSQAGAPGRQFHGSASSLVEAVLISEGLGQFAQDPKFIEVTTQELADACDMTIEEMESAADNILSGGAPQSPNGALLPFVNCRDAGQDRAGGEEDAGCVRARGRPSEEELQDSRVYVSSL

[3] = target: T2, Voltage-dependent L-type calcium channel subunit alpha-1C; assay: Antagonist activity at Cav1.2 (unknown origin) stably expressed in HEK293 cells at 10 uM assessed as inhibition of LTCC current by Whole cell patch clamp assay relative to control; assay type: cell-based; conditions: read-out: Activity
[4] = target: T1, Voltage-gated L-type calcium channel; assay: Antagonist activity at L-type calcium channel in Ca1520-loade human SH-SY5Y cells assessed as inhibition of KCL-mediated depolarization of cytosolic (Ca2+) increase incubated for 5 mins in presence of KCl by live-cell imaging based analysis
[5] = target: T2, Voltage-dependent L-type calcium channel subunit alpha-1C; assay: Binding affinity to GFP-tagged Cav1.2alpha 1C (unknown orign) transfected with human HeLa cells assessed as increase in fluorescence intensity in cytoplasm at 25 to 100 nM in presence of nifedipine by fluorescence based confocal microscopy analysis; assay type: cell-based; conditions: dose 25-100 nM
[6] = target: T2, Voltage-dependent L-type calcium channel subunit alpha-1C; assay: Binding affinity to GFP-tagged Cav1.2alpha 1C (unknown orign) transfected with human HeLa cells assessed as increase in fluorescence intensity at 25 to 100 nM in presence of nifedipine by fluorescence based confocal microscopy analysis; assay type: cell-based; conditions: dose 25-100 nM
[7] = target: T1, Voltage-gated L-type calcium channel; assay: Binding affinity to LTCC in endogenously expressing human SH-SY5Y cells assessed as increase in fluorescence intensity at 50 to 100 nM in presence of nifedipine by fluorescence based confocal microscopy analysis; assay type: cell-based; conditions: dose 50-100 nM
[8] = target: T2, Voltage-dependent L-type calcium channel subunit alpha-1C; assay: Binding affinity to GFP-tagged Cav1.2alpha 1C (unknown orign) transfected with human HeLa cells assessed as increase in fluorescence intensity at 50 nM incubated for 5 mins by fluorescence based confocal microscopy analysis; assay type: cell-based; conditions: 0.05 µM

In the case of `COC(=O)C1=C(C)NC(C)=C(C(=O)OCCCCCCNC(=O)CCCCC[N+]2=C(/C=C/C=C/C=C3/N(C)c4ccccc4C3(C)C)C(C)(C)c3ccccc32)C1c1cccc(Cl)c1Cl` (stereo unspecified), the Activity [1] is reported as “Active”, the IC50 [2] is reported as 12.5 µM and the inhibition at 10 µM [3] is reported as 50%.
For `COC(=O)C1=C(C)NC(C)=C(C(=O)OCCOCCNC(=O)CCCCC[N+]2=C(/C=C/C=C/C=C3/N(C)c4ccccc4C3(C)C)C(C)(C)c3ccccc32)C1c1cccc(Cl)c1Cl` (stereo unspecified), the Activity [1] was “Active”, the IC50 [2] was 7.48 µM and the inhibition at 10 µM [3] was 62%.
With `COC(=O)C1=C(C)NC(C)=C(C(=O)OCCOCCNC(=O)CCCCC[N+]2=C(/C=C/C=C/C=C3/N(C)c4ccccc4C3(C)C)C(C)(C)c3ccccc32)C1c1ccccc1OS(=O)(=O)F` (stereo unspecified) the Activity [1] was “Active”, the IC50 [2] was 1.51 µM and the inhibition at 10 µM [3] was 88%.
`COC(=O)C1=C(C)NC(C)=C(C(=O)OCCCCCCNC(=O)CCCCCNC(=O)Oc2ccc(/C=C/C3=[N+]4C(=Cc5ccc(-c6cccs6)n5[B-]4(F)F)C=C3)cc2)C1c1cccc(Cl)c1Cl` (stereo unspecified) was tested, and the Activity [1] was “Not Active”, the Activity [2] was “Not Active” and the inhibition at 10 µM [3] was 24%.
For `COC(=O)C1=C(C)NC(C)=C(C(=O)OCCOCCNC(=O)CCCCC[N+]2=C(/C=C/C=C/C=C3/N(C)c4ccccc4C3(C)C)C(C)(C)c3ccccc32)C1c1ccccc1[N+](=O)[O-]` (stereo unspecified), the Activity [1] was “Active”, the IC50 [2] was 2.2 µM and the inhibition at 10 µM [3] was 83%.
`COC(=O)C1=C(C)NC(C)=C(C(=O)OC)C1c1ccccc1[N+](=O)[O-]` [NIFEDIPINE] showed an inhibition at 10 µM [3] of 102%.
With `COC(=O)C1=C(C)NC(C)=C(C(=O)OCCCCCCCCNC(=O)CCCCC[N+]2=C(/C=C/C=C/C=C3/N(C)c4ccccc4C3(C)C)C(C)(C)c3ccccc32)C1c1ccccc1[N+](=O)[O-]` (stereo unspecified) the Activity [1] was “Active”, the IC50 [2] was 1.9 µM and the inhibition at 10 µM [3] was 87%.
For `COC(=O)C1=C(C)NC(C)=C(C(=O)OCCOCCNC(=O)CCCCC[N+]2=C(/C=C/C=C/C=C3\N(C)c4ccccc4C3(C)C)C(C)(C)c3ccccc32)[C@H]1c1cccc(Cl)c1Cl`, the IC50 [4] was 1.08 µM, the Activity ([4]; human, 5 min, dose 0.1-10000 nM) was “Dose-Dependent Effect” and the Activity [5] was “Not Active”. For the same molecule, the Activity [1] was “Active”, the Activity [6] was “Not Active” and the Activity [7] was “Not Active”. The IC50 [2] was 0.65 µM, the inhibition at 10 µM [3] was 94% and the Activity [8] was “Active”.
With `COC(=O)C1=C(C)NC(C)=C(C(=O)OCCNC(=O)CCCCC[N+]2=C(/C=C/C=C/C=C3/N(C)c4ccccc4C3(C)C)C(C)(C)c3ccccc32)C1c1cccc(Cl)c1Cl` (stereo unspecified) the Activity [1] was “Active”, the IC50 [2] was 4.25 µM and the inhibition at 10 µM [3] was 72%.
For `COC(=O)C1=C(C)NC(C)=C(C(=O)OCCOCCOCCNC(=O)CCCCC[N+]2=C(/C=C/C=C/C=C3\N(C)c4ccccc4C3(C)C)C(C)(C)c3ccccc32)C1c1cccc(Cl)c1Cl` (stereo unspecified), the Activity [1] was “Active”, the IC50 [2] was 3.5 µM and the inhibition at 10 µM [3] was 77%.
With `COC(=O)C1=C(C)NC(C)=C(C(=O)OCCOCCNC(=O)CCCCC[N+]2=C(/C=C/C=C/C=C3/N(C)c4ccccc4C3(C)C)C(C)(C)c3ccccc32)C1c1ccccc1/C=C/C(=O)OC(C)(C)C` (stereo unspecified) the Activity [1] was “Active”, the IC50 [2] was 1.07 µM and the inhibition at 10 µM [3] was 97%.
With `COC(=O)C1=C(C)NC(C)=C(C(=O)OCCOCCNC(=O)CCCCC[N+]2=C(/C=C/C=C/C=C3N(C)c4ccccc4C3(C)C)C(C)(C)c3ccccc32)[C@@H]1c1cccc(Cl)c1Cl` the Activity [1] was “Active”, the IC50 [2] was 6.53 µM and the inhibition at 10 µM [3] was 70%.
In the case of `COC(=O)C1=C(C)NC(C)=C(C(=O)OCCCCCCCCNC(=O)CCCCC[N+]2=C(/C=C/C=C/C=C3/N(C)c4ccccc4C3(C)C)C(C)(C)c3ccccc32)C1c1cccc(Cl)c1Cl` (stereo unspecified), the Activity [1] is reported as “Active”, the Activity [2] is reported as “Not Active” and the inhibition at 10 µM [3] is reported as 46%.
`COC(=O)C1=C(C)NC(C)=C(C(=O)OCCCCCCNC(=O)CCCCC[N+]2=C(/C=C/C=C/C=C3/N(C)c4ccccc4C3(C)C)C(C)(C)c3ccccc32)C1c1ccccc1[N+](=O)[O-]` (stereo unspecified) was tested, and the Activity [1] was “Active”, the IC50 [2] was 12.7 µM and the inhibition at 10 µM [3] was 52%.
